Experimental data from publication PMC9743128, “Phenotype-based screening rediscovered benzopyran-embedded microtubule inhibitors as anti-neuroinflammatory agents by modulating the tubulin–p65 interaction” (Experimental & Molecular Medicine, 2022).

Experiments:
C57BL/6 mice = assay: LPS neuroinflammation model; format: in vivo; conditions: 2 or 5 mg/kg IP daily for 4 days, LPS 5 mg/kg on Day 2
Protocol: All experiments were carried out with 10-week-old female C57BL/6 mice (20–25 g). The animals were divided into six experimental groups of three mice in each experiment: Group 1, treated with vehicle; Group 2, treated with SB26019 {2 mg/kg body weight (mpk)}; Group 3, treated with SB26019 (5 mpk); Group 4, treated with LPS and vehicle; Group 5, treated with LPS and SB26019 (2 mpk); and Group 6, treated with LPS and SB26019 (5 mpk). SB26019 (2 or 5 mpk) or vehicle {distilled water containing 5% DMSO and 40% polyethylene glycol 400 (TCI; N0433)} was administered with IP injection daily for 4 days. Five mpk of LPS (Sigma; L2880) in PBS was administered by IP injection on Day 2 for a single challenge. All mice were sacrificed on Day 5.
Mice were anesthetized with a mixture of alfaxalone and xylazine (5:1 ratio) and transcardially perfused with cold PBS. Mouse brains were harvested and fixed using 10% NBF (Sigma; HT501128) for 2 h. After washing with PBS for 30 min three times, fixed brains were embedded in OCT compound (Leica; #3801480) for frozen coronal sectioning at a thickness of 7 μm. […]
The perfused brains were minced with a 10 T scalpel blade. […] Microglia in the interphase between 70% and 37% Percoll solution was transferred and washed with HBSS media. mRNA was extracted from the microglia and analyzed with qPCR. […]

[1] = tested on: TNF-α secretion in BV-2 cells; assay: TNF-α ELISA of culture medium after LPS; format: cell-based, murine; conditions: 10 μM
Protocol: BV-2 and RAW264.7 cells were treated with compounds in the absence or presence of LPS (100 ng/ml). After 24 h, TNF-α levels in the culture medium were measured using a TNF-α ELISA kit (R&D Systems; DY410) according to the manufacturer’s protocol. Briefly, capture antibodies were coated on 96-well Maxisorp Nunc-Immuno plates (Thermo; #439454) for 1 h and washed with PBS containing 0.05% Tween-20 (PBST) three times. The plates were blocked with 1% BSA-PBS for 1 h and washed with PBST three times. Culture medium was added to the 96-well plate for 1 h and washed with PBST three times. Biotinylated detection antibody was added to the 96-well plate for 1 h and washed with PBST three times. Streptavidin–horseradish peroxidase (HRP) was added to the plate for 20 min and washed with PBST three times. After 20 min of incubation with TMB substrate (Thermo; #002023), TMB oxidation was stopped by adding 2 N H2SO4. The absorbance at 450 nm, 540 nm, and 570 nm was measured using a microplate reader (BioTek; Synergy). The following formula was used to calculate the net signal: OD450nm–(OD540nm + OD570nm)/2.
Fig. 2 SB26019 has anti-inflammatory activity via the accumulation of tubulin monomers. SB26019 (10 μM for 6 h) regulated the mRNA levels (a) and protein levels (b) of downstream genes of NF-κB in BV-2 murine microglial cells more efficiently than the other known tubulin modulators (n = 3). c Both tubulin modulators (10 μM for 6 h) and transient Flag-tagged α-tubulin overexpression increased the total amount of tubulin monomers. d Quantification of the amount of tubulin polymer vs. monomer in (c). Tubulin modulators (10 μM for 6 h) and transient Flag-tagged α-tubulin overexpression proportionally regulated the NF-κB signaling pathway at the mRNA (e) and protein levels f in RAW264.7 murine macrophage cells (n = 3). Data are presented as the mean ± SD (ns, not significant, p > 0.05; *p < 0.05; **p < 0.01; ***p < 0.001).

BV-2 cells = assay: Cell viability assay (EZ-Cytox); conditions: BV-2, various time points
Protocol: (§1) A total of 40,000 cells were seeded on a 96-well plate and incubated for 18 h. After 6-, 12- and 24-h compound treatment, 10 μL of EZ-Cytox solution (Dogen; EZ-BULK150) was added to the 96-well plate. After 30 min, the absorbance at 455 nm was measured using a microplate reader (BioTek; Synergy).
(§2) (n=6). Data are presented as the mean ± SD.

[2] = Cell viability assay (EZ-Cytox); conditions: mouse, BV-2 microglial cells
Protocol: as §1, §2

## COc1ccc2c(c1O)OC(C)(C)C=C2c1cccc2c1oc1ccccc12 [Compound 8]
C57BL/6 mice
  Microglial activation (Iba-1-positive region of the brain): efficiently regulated microglial activation in all brain regions in a dose-dependent manner
  Transcription levels of cytokines and chemokines in brain microglia (qPCR): efficiently inhibited the LPS-mediated upregulation of cytokines and chemokines
[1]
  TNF-α levels compared to that of the DMSO control: < 50%
BV-2 cells
  Cytotoxicity (cell viability curve): without considerable cytotoxicity
[2]
  viability at 10 µM: 108%
